The values that follow come from patent US20230192660A1 (priority 2020, published 2023).

The target of the experiment is SARS-CoV-2 Mpro C145A mutant (Severe acute respiratory syndrome coronavirus 2, UniProt P0DTD1, C3408A). The class given is binding.
Regarding `CC1(C)[C@@H]2[C@@H](C(=O)N[C@@H](C[C@@H]3CCNC3=O)C(=O)C(N)=O)N(C(=O)CCc3ccccc3)C[C@@H]21` [ML102], the “ΔTm Mpro C145A” value worked out at 0 °C.

Regarding `CNC(=O)C(=O)[C@H](C[C@@H]1CCNC1=O)NC(=O)[C@@H]1[C@@H]2[C@H](CN1C(=O)CCc1ccccc1)C2(C)C` [ML102m], the “ΔTm Mpro C145A” value turned out to be 0 °C.

`CC1(C)[C@@H]2[C@@H](C(=O)NC(C[C@@H]3CCNC3=O)C(=O)C(N)=O)N(C(=O)CNc3c(F)cc(F)cc3F)C[C@@H]21` (stereo partly shown) [ML104]: the “ΔTm Mpro C145A” value was found to be 0 °C.

As to `CNC(=O)C(=O)[C@H](C[C@@H]1CCNC1=O)NC(=O)[C@@H]1[C@@H]2[C@H](CN1C(=O)CNc1c(F)cc(F)cc1F)C2(C)C` [ML104m], the “ΔTm Mpro C145A” value was determined as 0 °C.

Take `COc1cccc2[nH]c(C(=O)N3C[C@H]4[C@@H]([C@H]3C(=O)N[C@@H](C[C@@H]3CCNC3=O)C(=O)C(N)=O)C4(C)C)cc12` [ML105]: the “ΔTm Mpro C145A” value turned out to be 0 °C.

Take `CC(C)(C)[C@H](NC(=O)C12CC(C1)C2)C(=O)N1C[C@H]2[C@@H]([C@H]1C(=O)N[C@@H](C[C@@H]1CCNC1=O)C(=O)C(N)=O)C2(C)C` [ML1002]: the “ΔTm Mpro C145A” value amounted to 0.1 °C.

On to `CNC(=O)C(=O)[C@H](C[C@@H]1CCNC1=O)NC(=O)[C@@H]1[C@@H]2[C@H](CN1C(=O)[C@@H](NC(=O)C13CC(C1)C3)C(C)(C)C)C2(C)C` [ML1002m], for which the “ΔTm Mpro C145A” value came to 0.1 °C.
